pIC50: −log10 of the molar value. The source made the active and inactive calls. No cut-off for these calls is given here.

Type in all cases: functional, cell-based
Test [1] in a line: (§1) Cytotoxicity against human ChaGo cells after 3 days by MTT assay. Conditions: 72 h.
The subject of a further test is SW-620. Description: Cytotoxicity against human SW620 cells after 3 days by MTT assay. (In general: Formazan colour is commonly taken as a measure of viable cells.)
In another test the test system is KATO III cell. Description: Cytotoxicity against human KATO III cells after 3 days by MTT assay.
The test system of the next test is BT-474. Description: Cytotoxicity against human BT474 cells after 3 days by MTT assay.
Another test deals with ChaGo. The description is as §1.
For the next test, the system named is HepG2. Description: Cytotoxicity against human HepG2 cells after 3 days by MTT assay. Conditions: for pIC50: HepG2, 72 h.

In general, pIC50 refers to −log10 of the IC50, conventionally taken in molar units. High values mean a low IC50, low ones a high IC50. In test [1], `COC(=O)CC[C@@H]1[C@@H](C)C(=O)C([C@@H](OC(C)=O)[C@@]2(O)C(=O)CC[C@]3(C)C2=CC(=O)O[C@H]3c2ccoc2)=CC1(C)C` [XYLOGRANATIN C] had a pIC50 of 5.04. In addition, the result in the test with SW-620, in the test with KATO III cell and in the test on BT-474 was inactive.

For the molecule `COC(=O)C[C@H]1C(C)(C)C(=O)[C@@H]2CC3=C4CC(=O)O[C@@H](c5ccoc5)[C@]4(C)CC[C@@H]3[C@@]1(C)C2=O`, the outcome in the test on ChaGo, with SW-620, in the test on KATO III cell, with BT-474 and in the test on HepG2 was inactive.

As for `CC(=O)OC1OC(C2OC2(C)C)C[C@@H]1[C@H]1CC=C2C3(C)C(O)CC4C(C)(C)C(=O)CC[C@]4(C)[C@H]3CC[C@@]21C` (stereo not given in full), the result in the test on ChaGo, in the test with SW-620, in the test on KATO III cell, in the test with BT-474 and in the test with HepG2 was inactive.

Take `CC1(C)C(=O)C=C[C@]2(C)[C@H]3CC[C@@]4(C)[C@H](c5ccoc5)OC(=O)[C@H]5O[C@]54[C@]3(C)C(=O)C[C@@H]12` [DEACETOXY-7-OXOGEDUNIN]: the negative-log IC50 (pIC50) in the test with HepG2 was 4.79.

Consider `CC(=O)O[C@@H]1C[C@H]2C(C)(C)C(=O)C=C[C@]2(C)[C@H]2CC[C@]3(C)C(=CC[C@H]3[C@H]3CO[C@@H](C4(O)OC4(C)C)C3)[C@@]21C` (stereo not given in full), for which the outcome in the test with ChaGo, in the test with SW-620, with KATO III cell, in the test on BT-474 and in the test on HepG2 was inactive.

On to `COC(=O)C[C@H]1C(C)(C)[C@@H]2O[C@@]34C[C@@H]2C(=O)[C@]1(C)[C@H]3CC[C@@]1(C)[C@@H](c2ccoc2)OC(=O)C[C@]14O`, for which the outcome in the test with ChaGo, with SW-620, in the test with KATO III cell, in the test with BT-474 and in the test with HepG2 was inactive.

`C=C1[C@@H]2CC[C@@]3(C)[C@H](c4ccoc4)OC(=O)C[C@]13O[C@H]1CC(=O)C(C)(C)[C@H](CC(=O)OC)[C@]12C`: the outcome with ChaGo, with SW-620, in the test on KATO III cell, in the test on BT-474 and with HepG2 was inactive.

On to `CC(=O)O[C@@H]1C[C@H]2C(C)(C)C(=O)C=C[C@]2(C)[C@H]2CC[C@]3(C)C(=CC[C@H]3[C@H]3CO[C@@H]([C@H](O)C(C)(C)O)C3)[C@@]21C`, for which the outcome in the test with ChaGo, in the test with SW-620, in the test with KATO III cell, in the test with BT-474 and in the test on HepG2 was inactive.

For `CC(=O)O[C@@H]1C[C@H]2C(C)(C)C(=O)C=C[C@]2(C)[C@H]2CC[C@]3(C)C(=CC[C@H]3[C@H]3CO[C@@H]([C@@H](O)C(C)(C)O)C3)[C@@]21C`, the outcome in the test with ChaGo, in the test with SW-620, with KATO III cell, in the test on BT-474 and in the test on HepG2 was inactive.

Take `COC(=O)[C@H](OC(C)=O)[C@H]1[C@]2(C)C[C@]3(O)[C@@](OC(C)=O)([C@H]4O[C@@]5(C)O[C@@]6(CC[C@@]7(C)[C@H](c8ccoc8)OC(=O)C[C@@]7(O)[C@@]46O5)[C@]13C)[C@H]2OC(C)=O`: the outcome in the test with ChaGo, in the test on SW-620, in the test with KATO III cell, in the test with BT-474 and in the test with HepG2 was inactive.

`COC(=O)C[C@H]1C(C)(C)[C@H](O)[C@@H]2CC3=C4CC(=O)O[C@@H](c5ccoc5)[C@]4(C)CC[C@@H]3[C@@]1(C)C2=O`: the result in the test with ChaGo, in the test on SW-620, with KATO III cell, in the test with BT-474 and in the test on HepG2 was inactive.

As for `CC1(C)C(=O)C=C[C@]2(C)[C@H]3CC[C@@]4(C)[C@H](c5ccoc5)OC(=O)[C@H]5O[C@]54[C@]3(C)[C@H](O)C[C@@H]12` [DEACETYLGEDUNIN], the pIC50 in test [1] is 4.80; in the test with HepG2 it was 4.99. Besides, the outcome in the test on SW-620, with KATO III cell and in the test on BT-474 was inactive.

Regarding `CC(=O)O[C@@H]1C[C@H]2C(C)(C)C(=O)C=C[C@]2(C)[C@H]2CC[C@]3(C)C(=CC[C@H]3[C@@H]3COC(=O)C3)[C@@]21C`, the result in the test on ChaGo, in the test with SW-620, in the test with KATO III cell, in the test with BT-474 and in the test on HepG2 was inactive.

As to `COC(=O)[C@H](OC(C)=O)[C@H]1[C@]2(C)C[C@]3(O)[C@H]([C@H]2OC(C)=O)[C@H]2O[C@@]4(C)O[C@@]5(CC[C@@]6(C)[C@H](c7ccoc7)OC(=O)C[C@@]6(O)[C@@]25O4)[C@]13C`, the outcome in the test with ChaGo, in the test with SW-620, with KATO III cell, with BT-474 and in the test on HepG2 was inactive.
